The results in this text go back to patent US11033556B2, “Bicyclic sulfonamides” (priority 2019, dated 2021).

The term EC50 denotes the concentration needed to bring the measured effect to its halfway point. The low end stands for an effect from little substance, the high end for a need for much substance.

This experiment concerns genotype D HBV. Briefly: HBV-DNA Antiviral Assay Using HepG2.117 Cells. The class given is cell-based. The following applies: Hepatitis B virus, HepG2.117, 96 h, intracellular HBV DNA by qPCR, day 4. The method, then: The following assay procedure describes the HBV antiviral assay, using HepG2.117 cells, which carry a stably integrated genotype D HBV genome under the control of a Tet-off promoter, and intracellular HBV DNA quantification as endpoint. Cell viability is assessed in parallel by measuring the intracellular ATP content using ATPlite (Perkin Elmer).
On day 0, HepG2.117 cells (which are maintained in routine cell culture with doxycycline present in the medium at a final concentration of 1 μg/mL) were seeded in 96-well plates (white with clear bottom) at a density of 2.0×10^4 cells/well (0.1 mL/well) in medium without doxycycline to induce pgRNA transcription and subsequent formation of HBV particles. The cells were incubated at 37° C. and 5% CO2.
On day 1, medium was removed from each well, the test articles were diluted in culture medium without doxcycyline and 100 μL was added to cell culture wells (9 concentrations, 4-fold dilution). For each plate, 6 untreated (merely DMSO) wells were included. The final concentration of DMSO in the culture medium was 2%. Each plate was prepared in duplicate (one for HBV DNA extraction, one for ATPlite measurement). The cells were incubated at 37° C. and 5% CO2 for 3 days.
On day 4, cell viability was assessed using ATPlite and cell lysates were prepared for HBV DNA extraction and subsequent quantification by qPCR.
Medium was removed from each well and 100 μL of 0.33% NP-40 in H2O was added to each well. Plates were sealed, incubated at 4° C. for 5 mins, vortexed extensively and centrifuged briefly. Next, 35 μL of lysate was added to 65 μL QuickExtract DNA Extraction Solution (Epicentre) in a PCR plate for each well. PCR plate was incubated at 65° C. for 6 mins, 98° C. for 2 mins and finally cooled to 4° C. HBV DNA was then quantified by qPCR with HBV-specific primers and probes as specified in Table 4 using the Bio-Rad SSOAdvanced Universal Probes Supermix on a CFX96 machine (Bio-Rad). The PCR cycle program consisted of 95° C. for 3 mins, followed by 40 cycles at 95° C. for 10 sec and 60° C. for 30 sec.
A DNA standard was prepared by dilution of an IDT gBlock corresponding to the amplicon with concentrations ranging from 10^2 to 10^8 copies/input (i.e. per 4 μL) and used to generate a standard curve by plotting Cq values vs. HBV DNA standard concentration. The quantity of HBV DNA in each sample was determined by interpolating from the standard curve.
Cell viability was calculated as follows: % Cell viability=(luminescence value of test sample)/(average luminescence value of 2% DMSO control)×100%. HBV DNA inhibition was calculated as follows: 100−(HBV DNA copy number of test sample)/(average HBV DNA copy number of 2% DMSO control)×100%. No normalization to entecavir was required due to the excellent dynamic window of this assay. The CC50, EC50 and EC90 values were determined by dose-response curves fitted by GraphPad Prism using “log (agonist) vs. response—Variable slope”.
On the technique in general: Quantitative PCR measures a nucleic acid by following its amplification.
On to `C=C[C@H]1CCc2c(cn(C)c2C(=O)Nc2ccc(F)c(C#N)c2)S(=O)(=O)N1` [Compound 8], for which the EC50 is 0.001 to 0.01 µM.
As for `C=C[C@@]1(CO)CCc2c(cn(C)c2C(=O)Nc2ccc(F)c(C(F)(F)F)c2)S(=O)(=O)N1` [Compound 9A], the EC50 is 0.01 to 0.1 µM.
`C=C[C@]1(CO)CCc2c(cn(C)c2C(=O)Nc2ccc(F)c(C(F)(F)F)c2)S(=O)(=O)N1` [Compound 9B] showed a concentration for a half-maximal effect (EC50) of 0.01 to 0.1 µM.
`C=C[C@@]1(CO)CCc2c(cn(C)c2C(=O)Nc2ccc(F)c(C#N)c2)S(=O)(=O)N1` [Compound 10A]: the concentration for a half-maximal effect (EC50) is 0.01 to 0.1 µM.
`C=C[C@]1(CO)CCc2c(cn(C)c2C(=O)Nc2ccc(F)c(C#N)c2)S(=O)(=O)N1` [Compound 10B]: the 50% effective concentration (EC50) lay in the range of 0.01 to 0.1 µM.
In the case of `C=C[C@](C)(O)[C@H]1CCc2c(cn(C)c2C(=O)Nc2ccc(F)c(C#N)c2)S(=O)(=O)N1` [Compound 11A] it was 0.001 to 0.01 µM; in that of `C=C[C@@](C)(O)[C@H]1CCc2c(cn(C)c2C(=O)Nc2ccc(F)c(C#N)c2)S(=O)(=O)N1` [Compound 11B], 0.001 to 0.01 µM; in that of `C#C[C@](C)(O)[C@H]1CCc2c(cn(C)c2C(=O)Nc2ccc(F)c(C#N)c2)S(=O)(=O)N1` [Compound 12A], 0.01 to 0.1 µM.
As to `C#C[C@@](C)(O)[C@H]1CCc2c(cn(C)c2C(=O)Nc2ccc(F)c(C#N)c2)S(=O)(=O)N1` [Compound 12B], the EC50 was in the range of 0.01 to 0.1 µM.
The compound `Cn1cc2c(c1C(=O)Nc1ccc(F)c(C#N)c1)OC[C@H](CC=C(F)F)NS2(=O)=O` [Compound 13] came in with a 50% effective concentration (EC50) of 0.001 to 0.01 µM.
For the compound `C=C[C@H](O)[C@H]1COc2c(cn(C)c2C(=O)Nc2ccc(F)c(C#N)c2)S(=O)(=O)N1` [Compound 14A], the 50% effective concentration (EC50) fell in the range of 0.001 to 0.01 µM.
`C=C[C@@H](O)[C@H]1COc2c(cn(C)c2C(=O)Nc2ccc(F)c(C#N)c2)S(=O)(=O)N1` [Compound 14B] gave an EC50 of 0.001 to 0.01 µM.
As for `C=C[C@]1(C)COc2c(cn(C)c2C(=O)Nc2ccc(F)c(C#N)c2)S(=O)(=O)N1` [Compound 15A], the EC50 lay within 0.001 to 0.01 µM.
Take `C=C[C@@]1(C)COc2c(cn(C)c2C(=O)Nc2ccc(F)c(C#N)c2)S(=O)(=O)N1` [Compound 15B]: the concentration for a half-maximal effect (EC50) was in the range of 0.001 to 0.01 µM.
Consider `C=CC[C@]1(C)COc2c(cn(C)c2C(=O)Nc2ccc(F)c(C#N)c2)S(=O)(=O)N1` [Compound 16A], for which the EC50 lay in the range of 0.001 to 0.01 µM.
Compound `C=CC[C@@]1(C)COc2c(cn(C)c2C(=O)Nc2ccc(F)c(C#N)c2)S(=O)(=O)N1` [Compound 16B] returned an EC50 of 0.001 to 0.01 µM.
Take `C=CC[C@H](O)[C@H]1COc2c(cn(C)c2C(=O)Nc2ccc(F)c(C#N)c2)S(=O)(=O)N1` [Compound 17A]: the EC50 lay within 0.001 to 0.01 µM.
Consider `C=CC[C@@H](O)[C@H]1COc2c(cn(C)c2C(=O)Nc2ccc(F)c(C#N)c2)S(=O)(=O)N1` [Compound 17B], for which the EC50 lay in the range of 0.001 to 0.01 µM.
On to `C#C[C@H](O)[C@H]1COc2c(cn(C)c2C(=O)Nc2ccc(F)c(C#N)c2)S(=O)(=O)N1` [Compound 18], for which the EC50 was in the range of 0.001 to 0.01 µM.
In the case of `CC#C[C@H](O)[C@H]1COc2c(cn(C)c2C(=O)Nc2ccc(F)c(C#N)c2)S(=O)(=O)N1` [Compound 19A] it was 0.001 to 0.01 µM; in that of `CC#C[C@@H](O)[C@H]1COc2c(cn(C)c2C(=O)Nc2ccc(F)c(C#N)c2)S(=O)(=O)N1` [Compound 19B], 0.001 to 0.01 µM.
For the compound `C=C[C@@](O)([C@H]1COc2c(cn(C)c2C(=O)Nc2ccc(F)c(C(F)(F)F)c2)S(=O)(=O)N1)C(F)(F)F` [Compound 20], the EC50 was 0.001 to 0.01 µM.
Take `C=C[C@](O)([C@@H]1COc2c(cn(C)c2C(=O)Nc2ccc(F)c(C#N)c2)S(=O)(=O)N1)C(F)(F)F` [Compound 21]: the half-maximal effective concentration (EC50) fell in the range of 0.01 to 0.1 µM.
Then `CC#C[C@H](O)[C@H]1COc2c(cn(C)c2C(=O)Nc2ccc(F)c(C(F)(F)F)c2)S(=O)(=O)N1` [Compound 22A], with 0.01 to 0.1 µM; and `CC#C[C@@H](O)[C@H]1COc2c(cn(C)c2C(=O)Nc2ccc(F)c(C(F)(F)F)c2)S(=O)(=O)N1` [Compound 22B], with 0.001 to 0.01 µM; and `C=C[C@@]1(C)COc2c(cn(C)c2C(=O)Nc2ccc(F)c(C(F)(F)F)c2)S(=O)(=O)N1` [Compound 23A], with 0.001 to 0.01 µM.
